Measurements taken from US20220315554A1, “COMPOUNDS COMPRISING A […] LIGAND AND USE THEREOF” (priority 2019, published 2022).
Numbered stars: 1 amine (or outer) side, 2 acyl side, 3 side chain; on linkers, the order of the positions; unused ones are H or OH. Bridge positions count the residues as written; N and C are the ends. Square brackets hold non-standard residues; d marks the D form. Peptide text beside a SMILES is read from it. * marks the point of attachment. X5 = O=C(O)CN1CCN(CC(=O)O)CCN(CC(=O)NCCSCc2cc(CSC[C@@H](CO)N[*:2])cc(C[*:1])c2)CCN(CC(=O)O)CC1; X47 = O=C(O)CN1CCN(CC(=O)O)CCN(CC(=O)NCCCCCNC(=O)CCC(=O)NCCCOCCOCCOCCCN*)CCN(CC(=O)O)CC1; X1 = O=C(O)CN1CCN(CC(=O)O)CCN(CC(=O)N2CCN(Cc3cc(C[*:1])cc(C[*:2])c3)CC2)CCN(CC(=O)O)CC1; NH(CH2)3NHDOTA = O=C(O)CN1CCN(CC(=O)O)CCN(CC(=O)NCCCN*)CCN(CC(=O)O)CC1; X42 = NCCNCC(CNCCN)C(=O)N[C@@H](CCC(=O)NCCCOCCOCCOCCCN*)C(=O)O; X39 = NCCOCCOCC(=O)NCCSCc1cc(C[*:1])cc(C[*:2])c1; X12 = NCCNCC(CNCCN)C(=O)NCCCOCCOCCOCCCN*; mXylylene = c1cc(C[*:1])cc(C[*:2])c1; X44 = O=C(CC1CCN([*:1])CC1)[*:2]; 4Pal = N[C@@H](Cc1ccncc1)C(=O)O; 2Thi = N[C@@H](Cc1cccs1)C(=O)O; Suc = O=C(CCC(=O)[*:2])[*:1]; Nle = CCCC[C@H](N)C(=O)O; Hexanoyl = CCCCCC(=O)*; Sar = CNCC(=O)O

Columns and labels:
Human recombinant FAP = target: T1, Human recombinant FAP (Homo sapiens, UniProt Q12884); experiment: FRET-based FAP protease activity assay; type: biochemical; parameters: purchased R&D systems 3715-SE; conditions: pIC50 Category (Activity), FRET substrate, 37° C.
T1 sequence (Q12884 1-760): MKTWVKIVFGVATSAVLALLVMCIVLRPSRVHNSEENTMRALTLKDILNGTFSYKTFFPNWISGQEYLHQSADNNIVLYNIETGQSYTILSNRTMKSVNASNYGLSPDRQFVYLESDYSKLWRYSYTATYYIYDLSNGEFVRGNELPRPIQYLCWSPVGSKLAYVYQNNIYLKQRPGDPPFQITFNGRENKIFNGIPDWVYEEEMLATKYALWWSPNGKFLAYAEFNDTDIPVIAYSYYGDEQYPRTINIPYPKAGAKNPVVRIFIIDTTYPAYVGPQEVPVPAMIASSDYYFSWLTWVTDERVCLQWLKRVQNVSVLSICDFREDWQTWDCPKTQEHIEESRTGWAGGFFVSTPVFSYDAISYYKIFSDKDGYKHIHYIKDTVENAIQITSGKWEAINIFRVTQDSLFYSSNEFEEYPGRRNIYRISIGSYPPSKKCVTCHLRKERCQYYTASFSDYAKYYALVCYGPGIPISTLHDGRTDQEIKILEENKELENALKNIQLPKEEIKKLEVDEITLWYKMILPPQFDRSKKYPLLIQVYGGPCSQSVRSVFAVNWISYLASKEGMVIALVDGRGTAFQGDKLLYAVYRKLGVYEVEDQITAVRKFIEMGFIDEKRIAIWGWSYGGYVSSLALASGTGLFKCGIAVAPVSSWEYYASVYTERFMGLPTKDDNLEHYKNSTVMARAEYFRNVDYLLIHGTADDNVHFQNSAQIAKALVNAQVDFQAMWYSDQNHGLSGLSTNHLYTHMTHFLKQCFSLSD

[1] = target: T2, FAP-expressing human WI-38 fibroblasts (Homo sapiens, UniProt Q12884); experiment: Competitive FACS binding assay; conditions: pIC50 Category (FACS), competition with 3 nM Cy5-labeled compound, 4° C., 1 hour
T2 construct: FAP-expressing human WI-38 fibroblasts (ECACC) were cultured in EMEM; host or cells: WI-38 human fibroblasts
T2 sequence (Q12884 1-760): T1 sequence (Q12884 1-760)
Protocol: Cells were analyzed in an Attune NxT flow cytometer. […]

Row | SMILES | IC50 (Human recombinant FAP; recombinant human FAP) [nM] | IC50 ([1]; WI-38 fibroblasts) [nM] | IC50 (Human recombinant FAP) [nM] | IC50 [1] [nM]
1 | CSCC[C@H](NC(C)=O)C(=O)N[C@H]1CSCc2cccc(c2)CSC[C@H](C(=O)N[C@@H](CC(=O)O)C(=O)N[C@@H](Cc2c[nH]cn2)C(=O)N[C@@H](Cc2ccccc2)C(=O)N[C@@H](CCCNC(=N)N)C(=O)N[C@@H](CC(=O)O)C(N)=O)NC(=O)[C@H](Cc2ccccc2)NC(=O)[C@H](CCC(=O)O)NC(=O)[C@H]([C@@H](C)O)NC(=O)[C@@H]2CCCN2C(=O)[C@@H]2CCCN2C1=O [3BP-3182, Ac-Met-[Cys(3MeBn)-Pro-Pro-Thr-Glu-Phe-cys]-Asp-His-Phe-Arg-Asp-NH2] (Ac-MCPPTEF[dC]DHFRD-NH2; linker 2-8 via mXylylene) | 10 to 79.4 | 10 to 79.4 | – | –
2 | CSCC[C@H](NC(C)=O)C(=O)N[C@H]1CSCc2cccc(c2)CSC[C@@H](C(=O)N[C@@H](CC(=O)O)C(=O)N[C@@H](Cc2c[nH]cn2)C(=O)N[C@@H](Cc2cccs2)C(=O)N[C@@H](CCCNC(=N)N)C(=O)N[C@@H](CC(=O)O)C(N)=O)NC(=O)[C@H](Cc2ccccc2)NC(=O)[C@H](CCC(=O)O)NC(=O)[C@H]([C@@H](C)O)NC(=O)[C@@H]2CCCN2C(=O)[C@@H]2CCCN2C1=O [3BP-3193, Ac-Met-[Cys(3MeBn)-Pro-Pro-Thr-Glu-Thi-Cys]-Asp-His-Phe-Arg-Asp-NH2] (Ac-MCPPTEFCDH[2Thi]RD-NH2; linker 2-8 via mXylylene) | < 10 | < 10 | – | –
3 | CCCC[C@H](NC(=O)CCC(=O)NCCCOCCOCCOCCCNC(=O)C(CNCCN)CNCCN)C(=O)N[C@H]1CSCc2cccc(c2)CSC[C@@H](C(=O)O)NC(=O)[C@H](Cc2ccncc2)NC(=O)[C@H](CCC(=O)O)NC(=O)[C@H]([C@@H](C)O)NC(=O)[C@@H]2CCCN2C(=O)[C@@H]2CCCN2C1=O [3BP-4223, N4Ac-Ttds-Nle-[Cys-(3MeBn)-Pro-Pro-Thr-Glu-Ppa-Cys]-OH] ({X12-Suc}-[Nle]CPPTE[4Pal]C-OH; linker 2-8 via mXylylene) | – | – | 100 to 794 | 100 to 794
4 | CCCCCC(=O)N[C@H]1CSCc2cccc(c2)CSC[C@@H](C(=O)N[C@@H](CC(=O)O)C(=O)NCCCOCCOCCOCCCNC(=O)CCC(=O)NCCCCCNC(=O)CN2CCN(CC(=O)O)CCN(CC(=O)O)CCN(CC(=O)O)CC2)NC(=O)[C@H](Cc2ccccc2)NC(=O)[C@H](CCC(N)=O)NC(=O)[C@H]([C@@H](C)O)NC(=O)[C@@H]2CCCN2C(=O)[C@@H]2CCCN2C1=O [3BP-3404, Hex-[Cys(3MeBn)-Pro-Pro-Thr-Gln-Phe-Cys]-Asp-Ttds-Ape(DOTA)] (Hexanoyl-CPPTQFCD-X47; linker 1-7 via mXylylene) | < 10 | < 10 | – | –
5 | CCCC[C@H](NC(=O)CCC(=O)NCCCOCCOCCOCCCNC(=O)CC[C@H](NC(=O)C(CNCCN)CNCCN)C(=O)O)C(=O)N[C@H]1CSCc2cccc(c2)CSC[C@@H](C(=O)O)NC(=O)[C@H](Cc2ccccc2)NC(=O)[C@H](CCC(=O)O)NC(=O)[C@H]([C@@H](C)O)NC(=O)[C@@H]2CCCN2C(=O)[C@@H]2CCCN2C1=O [3BP-4245, N4Ac-gGlu-Ttds-Nle-[Cys-(3MeBn)-Pro-Pro-Thr-Gln-Phe-Cys]-OH] ({X42-Suc}-[Nle]CPPTEFC-OH; linker 2-8 via mXylylene) | – | – | 10 to 79.4 | 10 to 79.4
6 | CCCCCC(=O)N[C@H]1CSCc2cccc(c2)CSC[C@@H](C(=O)O)NC(=O)[C@H](Cc2ccccc2)NC(=O)[C@H](CCC(=O)O)NC(=O)[C@H]([C@@H](C)O)NC(=O)[C@@H]2CCCN2C(=O)[C@@H]2CCCN2C1=O [3BP-3370, Hex-[Cys(3MeBn)-Pro-Pro-Thr-Glu-Phe-Cys]-OH] (Hexanoyl-CPPTEFC-OH; linker 1-7 via mXylylene) | 10 to 79.4 | 10 to 79.4 | – | –
7 | CCCCCC(=O)N[C@H]1CSCc2cccc(c2)CSC[C@@H](C(N)=O)NC(=O)[C@H](Cc2ccccc2)NC(=O)[C@H](CCC(=O)O)NC(=O)[C@H]([C@@H](C)O)NC(=O)[C@@H]2CCCN2C(=O)[C@H](C)NC1=O [3BP-3346, Hex-[Cys(3MeBn)-Ala-Pro-Thr-Glu-Phe-Cys]-NH2] (Hexanoyl-CAPTEFC-NH2; linker 1-7 via mXylylene) | 100 to 794 | > 1000 | – | –
8 | CCCCCC(=O)N[C@H]1CSCc2cccc(c2)CSC[C@@H](C(=O)N[C@@H](CC(=O)O)C(N)=O)NC(=O)[C@H](Cc2ccccc2)NC(=O)[C@H](CCC(=O)NCCCNC(=O)CN2CCN(CC(=O)O)CCN(CC(=O)O)CCN(CC(=O)O)CC2)NC(=O)[C@H]([C@@H](C)O)NC(=O)[C@@H]2CCCN2C(=O)[C@@H]2CCCN2C1=O [3BP-3472, Hex-[Cys(3MeBn)-Pro-Pro-Thr-Glu(NH-Apr-DOTA')-Phe-Cys]-Asp-NH2] (Hexanoyl-CPPTE(NH(CH2)3NHDOTA)FCD-NH2; linker 1-7 via mXylylene) | > 1000 | > 1000 | – | –
9 | CCCCCC(=O)N[C@H]1CSCc2cc(CSCCNC(=O)COCCOCCN)cc(c2)CSC[C@@H](C(=O)N[C@@H](CC(=O)O)C(N)=O)NC(=O)[C@H](Cc2ccccc2)NC(=O)[C@H](CCC(N)=O)NC(=O)[C@H]([C@@H](C)O)NC(=O)[C@@H]2CCCN2C(=O)[C@@H]2CCCN2C1=O [3BP-4003, Hex-[Cys-(tMeBn(H-O2Oc-AET))-Pro-Pro-Thr-Gln-Phe-Cys]-Asp-NH2] (Hexanoyl-CPPTQFCD-NH2; linker 1-7 via X39) | – | – | < 10 | < 10
10 | CCCCCC(=O)N[C@H]1CSCc2cccc(c2)CSC[C@@H](C(=O)N[C@@H](CC(=O)O)C(=O)N2CCC(CC(=O)N[C@@H](CCCNC(=N)N)C(N)=O)CC2)NC(=O)[C@H](Cc2ccccc2)NC(=O)[C@H](CCC(=O)O)NC(=O)[C@H]([C@@H](C)O)NC(=O)[C@@H]2CCCN2C(=O)[C@@H]2CCCN2C1=O [3BP-3302, Hex-[Cys(3MeBn)-Pro-Pro-Thr-Glu-Phe-Cys]-Asp-Cmp-Arg-NH2] (Hexanoyl-CPPTEFCD[X44]R-NH2; linker 1-7 via mXylylene) | < 10 | < 10 | – | –
11 | CCCCCC(=O)N[C@H]1CSCc2cccc(c2)CSC[C@@H](C(N)=O)NC(=O)[C@H](Cc2ccccc2)NC(=O)[C@H](CCC(=O)O)NC(=O)[C@H](C)NC(=O)[C@@H]2CCCN2C(=O)[C@@H]2CCCN2C1=O [3BP-3354, Hex-[Cys(3MeBn)-Pro-Pro-Ala-Glu-Phe-Cys]-NH2] (Hexanoyl-CPPAEFC-NH2; linker 1-7 via mXylylene) | > 1000 | > 1000 | – | –
12 | CCCCCC(=O)N[C@H]1CSCc2cc(CSCCNC(=O)CN3CCN4CCN5CCN(CC3)CC(=O)[O][Eu]([O]C(=O)C4)[O]C(=O)C5)cc(c2)CSC[C@@H](C(=O)O)NC(=O)[C@H](Cc2ccccc2)NC(=O)[C@H](CCC(N)=O)NC(=O)[C@H]([C@@H](C)O)NC(=O)[C@@H]2CCCN2C(=O)[C@@H]2CCCN2C1 [3BP-3662, Europium-Complex of Hex-[Cys(tMeBn(DOTA-AET))-Pro-Pro-Thr-Gln-Phe-Cys]-OH] | – | – | < 10 | < 10
13 | CCCCCC(=O)N[C@H]1CSCc2cc(cc(CN3CCN(C(=O)CN4CCN(CC(=O)O)CCN(CC(=O)O)CCN(CC(=O)O)CC4)CC3)c2)CSC[C@@H](C(=O)O)NC(=O)[C@H](Cc2ccccc2)NC(=O)[C@H](CCC(N)=O)NC(=O)[C@H]([C@@H](C)O)NC(=O)[C@@H]2CCCN2C(=O)CN(C)C1=O [3BP-3771, Hex-[Cys(tMeBn(DOTA-PP))-Nmg-Pro-Thr-Gln-Phe-Cys]-OH] (Hexanoyl-C[Sar]PTQFC-OH; linker 1-7 via X1) | – | – | < 10 | < 10
14 | CCCCCC(=O)N[C@H]1CSCc2cccc(c2)CSC[C@@H](C(N)=O)NC(=O)[C@H](Cc2ccccc2)NC(=O)[C@H](C)NC(=O)[C@H]([C@@H](C)O)NC(=O)[C@@H]2CCCN2C(=O)[C@@H]2CCCN2C1=O [3BP-3348, Hex-[Cys(3MeBn)-Pro-Pro-Thr-Ala-Phe-Cys]-NH2] (Hexanoyl-CPPTAFC-NH2; linker 1-7 via mXylylene) | > 1000 | > 1000 | – | –
15 | CCCCCC(=O)N[C@H]1CSCc2cc(CSCCNC(=O)CN3CCN(CC(=O)O)CCN(CC(=O)O)CCN(CC(=O)O)CC3)cc(c2)CSC[C@@H](CO)NC(=O)[C@H](Cc2ccccc2)NC(=O)[C@H](CCC(N)=O)NC(=O)[C@H]([C@@H](C)O)NC(=O)[C@@H]2CCCN2C(=O)[C@@H]2CCCN2C1=O [3BP-3767, Hex-[Cys(tMeBn(DOTA-AET))-Pro-Pro-Thr-Gln-Phe-Cysol]] (Hexanoyl-CPPTQF; linker 1-C via X5) | – | – | < 10 | < 10
16 | C[C@@H](O)[C@@H]1NC(=O)[C@@H]2CCCN2C(=O)[C@@H]2CCCN2C(=O)[C@@H](NC(=O)[C@H](CCC(=O)O)NC(=O)CCC(=O)NCCCOCCOCCOCCCNC(=O)C(CNCCN)CNCCN)CSCc2cccc(c2)CSC[C@@H](C(=O)O)NC(=O)[C@H](Cc2ccccc2)NC(=O)[C@H](CCC(=O)O)NC1=O [3BP-4233, N4Ac-Ttds-Glu-[Cys-(3MeBn)-Pro-Pro-Thr-Glu-Phe-Cys]-OH] ({X12-Suc}-ECPPTEFC-OH; linker 2-8 via mXylylene) | – | – | > 1000 | 100 to 794
